Measurements: patent publication US20070148448A1, “Microencapsulated delivery vehicles including cooling agents” (Kimberly-Clark Worldwide, Inc., priority 2005, published 2007)

Test system: Methicillin-resistant Staphylococcus aureus
Conditions: 0.005% (by weight) active PHMB
Protocol: This Example utilized 1.5-milliliter tubes containing a 1-milliliter blend of phosphate-buffered saline (pH 7.2) and 5% (w/v) bovine serum albumin soil. The tubes were placed in electric heat blocks set for 22° C., 30° C., 40° C. and 50° C., respectively. The tubes remained in the electric heat blocks for approximately 10 minutes.
Duplicate tubes without PHMB at each temperature were also made.
All of the tubes were then placed back into the heat blocks at their respective temperatures. […] The letheen samples were then plated in duplicate on Tryptic Soy agar plates using a WASP2 spiral plater (commercially available from Don Whitley Scientific, Ltd., Yorkshire, United Kingdom).
After 48 hours, the plates were evaluated using a total plate count to determine the biocidal efficacy of each sample.

In the case of polyhexamethylene biguanide [PHMB], the “difference in efficacy between 22° C. and 50° C.” value is reported as “greater than 1.4 LOG,o”.
